Biological target: T1, BACE1 enzyme (Homo sapiens, UniProt P56817)
T1 construct: transfected with a soluble BACE construct (BACE1deltaTM96His); His (C); made in house; host or cells: CHO-K1 cells (secreted into conditioned media)
Assay: BACE1 Cell-Free Assay (fluorescence polarization, cleavage of synthetic APP substrate)
Format: biochemical
Details: geometric mean of 2-4 determinations unless otherwise indicated (b: ≥5 determinations; c: single determination); 0.1 nM BACE1, 150 nM peptide substrate, pH 4.5, 3 hours at 37° C.
Source text: BACE1 Cell-Free Assay: Beta-secretase (BACE) is one of the enzymes involved in the generation of the amyloid beta peptide found in the amyloid plaques of Alzheimer's disease patients. This assay measures the inhibition of the beta-secretase enzyme as it cleaves a non-native peptide.
A synthetic APP substrate that can be cleaved by beta-secretase having N-terminal biotin and made fluorescent by the covalent attachment of Oregon Green at the Cys residue is used to assay beta-secretase activity in the presence or absence of the inhibitory compounds. The substrate is Biotin-GLTNIKTEEISEISY^EVEFR-C[Oregon Green]KK-OH. The BACE1 enzyme is affinity purified material from conditioned media of CHO-K1 cells that have been transfected with a soluble BACE construct (BACE1deltaTM96His). Compounds are incubated in a ½ log dose response curve from a top concentration of 100 μM with BACE1 enzyme and the biotinylated fluorescent peptide in 384-well black plates (Thermo Scientific #4318). BACE1 is at a final concentration of 0.1 nM with a final concentration of peptide substrate of 150 nM in a reaction volume of 30 μL assay buffer [100 mM sodium acetate, pH 4.5 (brought to pH with acetic acid), and 0.001% Tween-20]. Plates are covered and incubated for 3 hours at 37° C. The reaction is stopped with the addition of 30 μL of 1.5 μM Streptavidin (Pierce, #21125). After a 10 minute incubation at room temperature, plates are read on a PerkinElmer EnVision for fluorescence polarization (Ex485 nm/Em530 nm). The activity of the beta-secretase enzyme is detected by changes in the fluorescence polarization that occur when the substrate is cleaved by the enzyme.

T1 sequence (P56817 46-457 limits assumed): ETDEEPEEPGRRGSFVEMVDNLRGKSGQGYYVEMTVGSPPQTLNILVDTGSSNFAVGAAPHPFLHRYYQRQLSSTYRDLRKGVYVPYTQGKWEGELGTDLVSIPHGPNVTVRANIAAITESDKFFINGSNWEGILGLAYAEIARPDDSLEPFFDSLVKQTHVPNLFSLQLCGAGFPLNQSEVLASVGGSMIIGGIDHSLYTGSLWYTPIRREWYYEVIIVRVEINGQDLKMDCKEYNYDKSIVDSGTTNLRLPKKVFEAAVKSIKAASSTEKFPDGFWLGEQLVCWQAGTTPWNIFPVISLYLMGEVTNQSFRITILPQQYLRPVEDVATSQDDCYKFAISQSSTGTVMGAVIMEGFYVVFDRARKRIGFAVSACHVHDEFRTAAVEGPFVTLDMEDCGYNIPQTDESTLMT

Structure (SMILES)	IC50
CC1(C)C[C@@H]2CSC(N)=N[C@]2(c2nc(NC(=O)c3coc(CF)n3)cs2)CO1 (single isomer, unassigned) [Example 22]	15100 nM
CC#CCOc1ccc(C(=O)Nc2csc([C@]34COC(C)(C)C[C@H]3CSC(N)=N4)n2)nc1 (single isomer, unassigned) [Example 2]	88 nM
CC1(C)C[C@H]2CSC(N)=N[C@@]2(c2nc(NC(=O)C34CC(C3)C4)cs2)CO1 [Example 33, N-{2-[(4aR,8aR)-2-amino-6,6-dimethyl-4,4a,5,6-tetrahydropyrano[3,4-d][1,3]thiazin-8a(8H)-yl]-1,3-thiazol-4-yl} bicyclo[1.1.1]pentane-1-carboxamide]	734 nM
NC1=N[C@@]2(c3nc(NC(=O)c4ccc(OC(F)F)cn4)cs3)COC(CF)(CF)C[C@H]2CS1 [Example 10, N-{2-[(4aR,8aR)-2-amino-6,6-bis(fluoromethyl)-4,4a,5,6-tetrahydropyrano[3,4-d][1,3]thiazin-8a(8H)-yl]-1,3-thiazol-4-yl}-5-(difluoromethoxy)pyridine-2-carboxamide]	565 nM
CC1(C)C[C@H]2CSC(N)=N[C@@]2(c2nc(NC(=O)C(C)(C)F)cs2)CO1 [Example 31, N-{2-[(4aR,8aR)-2-amino-6,6-dimethyl-4,4a,5,6-tetrahydropyrano[3,4-d][1,3]thiazin-8a(8H)-yl]-1,3-thiazol-4-yl}-2-fluoro-2-methylpropanamide]	911 nM
COC[C@]1(C)C[C@H]2CSC(N)=N[C@@]2(c2nc(NC(=O)c3ccc(OC(F)F)cn3)cs2)CO1 [Example 40, N-{2-[(4aR,6S,8aR)-2-amino-6-(methoxymethyl)-6-methyl-4,4a,5,6-tetrahydropyrano[3,4-d][1,3]thiazin-8a(8H)-yl]-1,3-thiazol-4-yl}-5-(difluoromethoxy) pyridine-2-carboxamide]	2080 nM
NC1=N[C@@]2(c3nc(NC(=O)c4ccc(OC(F)F)cn4)cs3)COC3(COC3)C[C@H]2CS1 [Example 29, N-{2-[(4a′R,8a′R)-2′-amino-4a′,5′-dihydro-4′H-spiro[oxetane-3,6′-pyrano[3,4-d][1,3]thiazin]-8a′(8′H)-yl]-1,3-thiazol-4-yl}-5-(difluoromethoxy)pyridine-2-carboxamide]	675 nM
NC1=N[C@]2(c3nc(NC(=O)c4ccc(OC(F)F)cn4)cs3)COC3(CCC3)C[C@@H]2CS1 (single isomer, unassigned) [Example 4, N-{2-[(4a′S,8a′S)-2′-amino-4a′,5′-dihydro-4′H-spiro[cyclobutane-1,6′-pyrano[3,4-d] [1,3]thiazin]-8a′(8′H)-yl]-1,3-thiazol-4-yl}-5-(difluoromethoxy)pyridine-2-carboxamide]	> 21100 nM
COC[C@@]1(C)C[C@H]2CSC(N)=N[C@@]2(c2nc(NC(=O)c3ccc(OC(F)F)cn3)cs2)CO1 [Example 9, N-{2-[(4aR,6R,8aR)-2-amino-6-(methoxymethyl)-6-methyl-4,4a,5,6-tetrahydropyrano[3,4-d][1,3]thiazin-8a(8H)-yl]-1,3-thiazol-4-yl}-5-(difluoromethoxy) pyridine-2-carboxamide]	105 nM
CC#CCOc1ccc(C(=O)Nc2csc([C@@]34COC(C)(C)C[C@@H]3CSC(N)=N4)n2)nc1 (single isomer, unassigned) [Example 1]	31000 nM
NC1=N[C@@]2(c3nc(NC(=O)c4ccc(OC(F)F)cn4)cs3)COC3(CCC3)C[C@H]2CS1 (single isomer, unassigned) [Example 5, N-{2-[(4a′R,8a′R)-2′-amino-4a′,5′-dihydro-4′H-spiro[cyclobutane-1,6′-pyrano[3,4-d] [1,3]thiazin]-8a′(8′H)-yl]-1,3-thiazol-4-yl}-5-(difluoromethoxy)pyridine-2-carboxamide]	138 nM
NC1=N[C@@]2(c3nc(NC(=O)c4ccc(Cl)cn4)cs3)COC3(CCC3)C[C@H]2CS1 [Example 6, N-{2-[(4a′R,8a′R)-2′-amino-4a′,5′-dihydro-4′H-spiro[cyclobutane-1,6′-pyrano[3,4-d][1,3]thiazin]-8a′(8′H)-yl]-1,3-thiazol-4-yl}-5-chloropyridine-2-carboxamide]	88 nM

Next, values leading:

IC50	Structure (SMILES)
47 nM	Cc1cc(OC(F)F)cnc1C(=O)Nc1csc([C@]23COC(C)(C)C[C@H]2CSC(N)=N3)n1 [Example 24, N-{2-[(4aR,8aR)-2-amino-6,6-dimethyl-4,4a,5,6-tetrahydropyrano[3,4-d][1,3]thiazin-8a(8H)-yl]-1,3-thiazol-4-yl}-5-(difluoromethoxy)-3-methylpyridine-2-carboxamide]
176 nM	C[C@]1(CF)C[C@H]2CSC(N)=N[C@@]2(c2nc(NC(=O)c3ccc(OC(F)F)cn3)cs2)CO1 [Example 35, N-{2-[(4aR,6R,8aR)-2-amino-6-(fluoromethyl)-6-methyl-4,4a,5,6-tetrahydropyrano[3,4-d][1,3]thiazin-8a(8H)-yl]-1,3-thiazol-4-yl}-5-(difluoromethoxy) pyridine-2-carboxamide]
7950 nM	CC1(C)C[C@@H]2CSC(N)=N[C@]2(c2nc(NC(=O)c3cnc(OC(F)F)cn3)cs2)CO1 (single isomer, unassigned) [Example 13]
15500 nM	CC#CCOc1cnc(C(=O)Nc2csc([C@@]34COC(C)(C)C[C@@H]3CSC(N)=N4)n2)cn1 (single isomer, unassigned) [Example 20]
14800 nM	CC[C@]1(C)C[C@@H]2CSC(N)=N[C@]2(c2nc(NC(=O)c3ccc(OC(F)F)cn3)cs2)CO1 [Example 28, N-{2-[(4aS,6R,8aS)-2-amino-6-ethyl-6-methyl-4,4a,5,6-tetrahydropyrano[3,4-d][1,3]thiazin-8a(8H)-yl]-1,3-thiazol-4-yl}-5-(difluoromethoxy)pyridine-2-carboxamide]
61700 nM	CC(F)(F)COc1cnc(C(=O)Nc2csc([C@@]34COC(C)(C)C[C@@H]3CSC(N)=N4)n2)cn1 (single isomer, unassigned) [Example 18]
28500 nM	CC(F)(F)Oc1ccc(C(=O)Nc2csc([C@@]34COC(C)(C)C[C@@H]3CSC(N)=N4)n2)nc1 (single isomer, unassigned) [Example 16]
14800 nM	Cc1cc(OC(F)F)cnc1C(=O)Nc1csc([C@@]23COC(C)(C)C[C@@H]2CSC(N)=N3)n1 (single isomer, unassigned) [Example 25]
167 nM	CC1(C)C[C@H]2CSC(N)=N[C@@]2(c2nc(NC(=O)c3cnc(OC(F)F)cn3)cs2)CO1 (single isomer, unassigned) [Example 14]
6960 nM	CC1(C)C[C@@H]2CSC(N)=N[C@]2(c2nc(NC(=O)c3ccn(C(F)F)n3)cs2)CO1 (single isomer, unassigned) [Example 11]
421 nM	CC(F)(F)COc1cnc(C(=O)Nc2csc([C@]34COC(C)(C)C[C@H]3CSC(N)=N4)n2)cn1 (single isomer, unassigned) [Example 19]
1830 nM	CC[C@]1(C)C[C@H]2CSC(N)=N[C@@]2(c2nc(NC(=O)c3ccc(OC(F)F)cn3)cs2)CO1 [Example 27, N-{2-[(4aR,6R,8aR)-2-amino-6-ethyl-6-methyl-4,4a,5,6-tetrahydropyrano[3,4-d][1,3]thiazin-8a(8H)-yl]-1,3-thiazol-4-yl}-5-(difluoromethoxy)pyridine-2-carboxamide]
116 nM	CC1(C)C[C@H]2CSC(N)=N[C@@]2(c2nc(NC(=O)c3ccc(OC(F)F)cn3)cs2)CO1 [Example 7, N-{2-[(4aR,8aR)-2-amino-6,6-dimethyl-4,4a,5,6-tetrahydropyrano[3,4-d][1,3]thiazin-8a(8H)-yl]-1,3-thiazol-4-yl}-5-(difluoromethoxy)pyridine-2-carboxamide]
41 nM	CC#CCOc1cnc(C(=O)Nc2csc([C@]34COC(C)(C)C[C@H]3CSC(N)=N4)n2)cn1 (single isomer, unassigned) [Example 21]
59 nM	CC1(C)C[C@H]2CSC(N)=N[C@@]2(c2nc(NC(=O)c3ncc(OC(F)F)cc3Cl)cs2)CO1 [Example 30, N-{2-[(4aR,8aR)-2-amino-6,6-dimethyl-4,4a,5,6-tetrahydropyrano[3,4-d][1,3]thiazin-8a(8H)-yl]-1,3-thiazol-4-yl}-3-chloro-5-(difluoromethoxy)pyridine-2-carboxamide]
22 nM	CC1(C)C[C@H]2CSC(N)=N[C@@]2(c2nc(NC(=O)c3ccn(C(F)F)n3)cs2)CO1 (single isomer, unassigned) [Example 12]
41 nM	CC[C@@]1(C)C[C@H]2CSC(N)=N[C@@]2(c2nc(NC(=O)c3ccc(OC(F)F)cn3)cs2)CO1 [Example 8, N-{2-[(4aR,6S,8aR)-2-amino-6-ethyl-6-methyl-4,4a,5,6-tetrahydropyrano[3,4-d] [1,3]thiazin-8a(8H)-yl]-1,3-thiazol-4-yl}-5-(difluoromethoxy)pyridine-2-carboxamide]
